15 compounds from patent US8653109B2, “Substituted bipyridine derivatives and their use as adenosine receptor ligands” (Bayer Intellectual Property GmbH, priority 2006, dated 2014) can be followed below.

pEC50: −log10 of the molar value.

Assay type in all cases: cell-based
One assay concerns the target T1, adenosine A1 receptor (Homo sapiens, UniProt P30542).
T1 construct: expressed in transfected cells; host or cells: CHO (Chinese Hamster Ovary)
T1 sequence (P30542 1-326): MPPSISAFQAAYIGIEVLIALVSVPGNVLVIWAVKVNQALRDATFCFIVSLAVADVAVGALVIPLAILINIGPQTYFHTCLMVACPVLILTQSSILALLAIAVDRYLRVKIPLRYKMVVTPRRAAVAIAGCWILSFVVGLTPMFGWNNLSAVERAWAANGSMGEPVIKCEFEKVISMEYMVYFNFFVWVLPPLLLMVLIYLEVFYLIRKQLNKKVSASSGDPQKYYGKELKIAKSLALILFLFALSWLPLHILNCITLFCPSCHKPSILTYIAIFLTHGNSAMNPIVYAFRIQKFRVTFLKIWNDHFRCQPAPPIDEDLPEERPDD
The assay can be described thus: Indirect determination of adenosine agonism by way of gene expression (cAMP-dependent luciferase), A1 cells. Particulars: CHO cells stably transfected with A1 receptor cDNA; 1 μM forskolin; concentration at which 50% of the luciferase answer is inhibited. The text has this:
(§1) B-1. Indirect Determination of the Adenosine Agonism by Way of Gene Expression
(§2) Cells of the CHO (Chinese Hamster Ovary) permanent cell line are transfected stably with the cDNA for the adenosine receptor subtypes A1, A2a and A2b. The adenosine A1 receptors are coupled to the adenylate cyclase by way of Gi proteins, while the adenosine A2a and A2b receptors are coupled by way of Gs proteins. In correspondence with this, the formation of cAMP in the cell is inhibited or stimulated, respectively. After that, expression of the luciferase is modulated by way of a cAMP-dependent promoter. The luciferase test is optimized, with the aim of high sensitivity and reproducibility, low variance and good suitability for implementation on a robot system, by varying several test parameters, such as cell density, duration of the growth phase and the test incubation, forskolin concentration and medium composition. The following test protocol is used for pharmacologically characterizing cells and for the robot-assisted substance screening:
(§3) The stock cultures are grown, at 37° C. and under 5% CO2, in DMEM/F12 medium containing 10% FCS (foetal calf serum) and in each case split 1:10 after 2-3 days. The test cultures are seeded in 384-well plates with 2000 cells per well and grown at 37° C. for approx. 48 hours. The medium is then replaced with a physiological sodium chloride solution (130 mM sodium chloride, 5 mM potassium chloride, 2 mM calcium chloride, 20 mM HEPES, 1 mM magnesium chloride hexahydrate, 5 mM sodium bicarbonate, pH 7.4). The substances to be tested, which are dissolved in DMSO, are pipetted into the test cultures (maximum final concentration of DMSO in the test mixture: 0.5%) in a dilution series of from 5×10^−11M to 3×10^−6M (final concentration). 10 minutes later, forskolin is added to the A1 cells and all the cultures are subsequently incubated at 37° C. for four hours. After that, 35 μl of a solution which is composed of 50% lysis reagent (30 mM disodium hydrogenphosphate, 10% glycerol, 3% TritonX100, 25 mM TrisHCl, 2 mM dithiotreitol (DTT), pH 7.8) and 50% luciferase substrate solution (2.5 mM ATP, 0.5 mM luciferin, 0.1 mM coenzyme A, 10 mM tricine, 1.35 mM magnesium sulphate, 15 mM DTT, pH 7.8) are added to the test cultures, which are shaken for approx. 1 minute and the luciferase activity is measured using a camera system. The EC50 values are determined, i.e., the concentrations at which 50% of the luciferase answer is inhibited in the case of the A1 cell, and, respectively, 50% of the maximum stimulation with the corresponding substance is achieved in the case of the A2b and A2a cells. […] Pharmacol., 357 (1998), 1-9).

Another assay has as its target T2, adenosine A2a receptor (Homo sapiens, UniProt P29274).
T2 construct: expressed in transfected cells; host or cells: CHO (Chinese Hamster Ovary)
The assay can be described thus: Indirect determination of adenosine agonism by way of gene expression (cAMP-dependent luciferase), A2a cells. Particulars: CHO cells stably transfected with A2a receptor cDNA; 50% of the maximum stimulation of luciferase.
From the text: as §1, §2, §3

For the next assay, the target named is T3, adenosine A2b receptor (Homo sapiens, UniProt P29275).
T3 construct: expressed in transfected cells; host or cells: CHO (Chinese Hamster Ovary)
T3 sequence (P29275 1-332): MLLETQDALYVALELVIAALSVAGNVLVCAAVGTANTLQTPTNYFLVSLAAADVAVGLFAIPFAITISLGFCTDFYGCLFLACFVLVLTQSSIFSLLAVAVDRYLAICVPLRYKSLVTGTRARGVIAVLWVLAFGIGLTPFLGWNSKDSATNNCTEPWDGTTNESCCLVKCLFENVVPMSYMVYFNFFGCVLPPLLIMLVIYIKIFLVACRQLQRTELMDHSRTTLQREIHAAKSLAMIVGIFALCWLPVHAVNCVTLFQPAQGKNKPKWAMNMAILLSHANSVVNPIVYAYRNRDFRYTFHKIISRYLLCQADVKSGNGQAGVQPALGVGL
The assay can be described thus: Indirect determination of adenosine agonism by way of gene expression (cAMP-dependent luciferase), A2b cells. As to conditions: CHO cells stably transfected with A2b receptor cDNA; 50% of the maximum stimulation of luciferase.
From the text: as §1, §2, §3

Usually EC50 stands for the concentration needed to bring the measured effect to its halfway point. Read a high EC50 as weaker potency. A word on the pEC50: it is −log10 of the EC50, conventionally taken in molar units.

T2 sequence (P29274 whole entry): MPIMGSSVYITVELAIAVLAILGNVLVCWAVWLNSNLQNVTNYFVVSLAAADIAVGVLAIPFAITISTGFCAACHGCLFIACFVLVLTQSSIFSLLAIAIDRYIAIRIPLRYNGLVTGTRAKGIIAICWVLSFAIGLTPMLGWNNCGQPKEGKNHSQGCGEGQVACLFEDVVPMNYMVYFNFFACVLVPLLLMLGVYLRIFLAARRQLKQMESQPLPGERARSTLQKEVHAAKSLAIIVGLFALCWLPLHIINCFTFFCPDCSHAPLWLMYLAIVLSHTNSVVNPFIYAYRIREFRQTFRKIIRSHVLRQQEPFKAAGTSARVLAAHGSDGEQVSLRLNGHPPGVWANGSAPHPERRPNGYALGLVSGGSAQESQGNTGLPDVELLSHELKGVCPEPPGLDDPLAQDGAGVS

Consider `N#Cc1c(N)nc(SCc2coc(-c3ccc(Cl)cc3)n2)c(C#N)c1-c1ccc(OC[C@H](O)CO)nc1` [Example 43, 2′-Amino-6′-({[2-(4-chlorophenyl)-1,3-oxazol-4-yl]methyl}thio)-6-{[(2R)-2,3-dihydroxypropyl]-oxy}-3,4′-bipyridine-3′,5′-dicarbonitrile], for which a half-maximal effect at adenosine A1 receptor (EC50) was put at 0.04 nM. Moreover, the negative logarithm of the EC50 (pEC50) at adenosine A2a receptor is 7.14; at adenosine A2b receptor it was 6.73.
The like results for `N#Cc1c(N)nc(SCc2coc(-c3ccc(Cl)cc3)n2)c(C#N)c1-c1ccc(OCCO)nc1` [Example 31] were, in that order, 0.09 nM, 7.00 and 6.63.
For the compound `N#Cc1c(N)nc(SCc2csc(Nc3ccc(F)c(Cl)c3)n2)c(C#N)c1-c1ccc(OCCO)nc1` [Example 1, 2′-Amino-6′-[({2-[(3-chloro-4-fluorophenyl)amino]-1,3-thiazol-4-yl}methyl)thio]-6-(2-hydroxyethoxy)-3,4′-bipyridine-3′,5′-dicarbonitrile], the EC50 on adenosine A1 receptor came out at 0.8 nM. Further, the pEC50 on adenosine A2a receptor was 5.66; at adenosine A2b receptor it was 8.24.
The like results for `N#Cc1c(N)nc(SCc2cccc(Nc3ccncc3)n2)c(C#N)c1-c1ccc(OCCO)nc1` [Example 22] were, in that order, 0.6 nM, 6.92 and 6.93.
The like results for `N#Cc1c(NCCO)nc(SCc2csc(-c3ccc(Cl)cc3)n2)c(C#N)c1-c1ccc(OCCO)nc1` [Example 46] were, in that order, 0.04 nM, 6.58 and 6.78.
`N#Cc1c(N)nc(SCc2ncon2)c(C#N)c1-c1ccc(OCCO)nc1` [Example 25] displayed an EC50 at adenosine A1 receptor of 4.1 nM. Further, the negative-log EC50 (pEC50) on adenosine A2a receptor and on adenosine A2b receptor was under 5.52 each time.
Compound `N#Cc1c(SCc2csc(-c3ccc(Cl)cc3)n2)nc(N2CCCC2)c(C#N)c1-c1ccc(OCCO)nc1` [Example 44, 2′-({[2-(4-Chlorophenyl)-1,3-thiazol-4-yl]methyl}thio)-6-(2-hydroxyethoxy)-6′-pyrrolidin-1-yl-3,4′-bipyridine-3′,5′-dicarbonitrile] gave an EC50 at adenosine A1 receptor of 0.08 nM. Besides, the pEC50 on adenosine A2a receptor is 6.26; at adenosine A2b receptor, 7.02.
The like results for `N#Cc1c(N)nc(SCc2csc(Nc3ccc(F)cc3)n2)c(C#N)c1-c1ccc(OCCO)nc1` [Example 3] were, in that order, 0.2 nM, 6.91 and 8.43.
The like results for `Cc1cc(CSc2nc(N)c(C#N)c(-c3ccc(OCCO)nc3)c2C#N)nc(Nc2ccc(F)cc2)n1` [Example 21] were, in that order, 3.6 nM, under 5.52 and under 5.52.
The like results for `N#Cc1c(N)nc(SCc2cscn2)c(C#N)c1-c1ccc(OCCO)nc1` [Example 13] were, in that order, 0.09 nM, 7.68 and 8.26.
In turn, `Cc1oc(-c2ccc(Cl)cc2)nc1CSc1nc(N)c(C#N)c(-c2ccc(OCCO)nc2)c1C#N` [Example 37] had an EC50 at adenosine A1 receptor of 0.3 nM. Besides, the pEC50 at adenosine A2a receptor was 5.76; on adenosine A2b receptor it was 5.90.
For `N#Cc1c(N)nc(SCc2csc(-c3ccc(Cl)cc3)n2)c(C#N)c1-c1ccc(OCCO)nc1` [Example 19, 2′-Amino-6′-({[2-(4-chlorophenyl)-1,3-thiazol-4-yl]methyl}thio)-6-(2-hydroxyethoxy)-3,4′-bipyridine-3′,5′-dicarbonitrile], the EC50 on adenosine A1 receptor worked out at 0.04 nM. In addition, the pEC50 on adenosine A2a receptor is 6.18; on adenosine A2b receptor, 6.63.
The compound `N#Cc1c(N)nc(SCc2csc(Nc3ccc(F)c(F)c3)n2)c(C#N)c1-c1ccc(OCCO)nc1` [Example 11] came in with an EC50 at adenosine A1 receptor of 0.4 nM. Also, the negative-log EC50 (pEC50) at adenosine A2a receptor was 6.82; on adenosine A2b receptor, 8.24.
The like results for `N#Cc1c(N)nc(SCc2csc(Nc3cccc(F)c3)n2)c(C#N)c1-c1ccc(OCCO)nc1` [Example 5] were, in that order, 0.6 nM, 6.72 and 8.07.
The like results for `N#Cc1c(N)nc(SCc2coc(-c3ccc(Cl)cc3)n2)c(C#N)c1-c1ccc(OC[C@@H](O)CO)nc1` [Example 42, 2′-Amino-6′-({[2-(4-chlorophenyl)-1,3-oxazol-4-yl]methyl}thio)-6-{[(2S)-2,3-dihydroxypropyl]-oxy}-3,4′-bipyridine-3′,5′-dicarbonitrile] were, in that order, 0.09 nM, 6.45 and 6.29.
